In general, IC50 refers to the point on the concentration scale where inhibition reaches its midpoint. Low readings indicate greater potency, high ones weaker potency.

This assay addresses T1, HDAC1 (Homo sapiens, UniProt Q13547).
T1 construct: purchased BPS Bioscience (San Diego, CA)
As to the kind of experiment: Fluorogenic HDAC activity assay, HDAC1. Format: biochemical. As to the method: The lysine deacetylase activity of HDACs 1, 2, 3, and 8 was assessed using the Fluorogenic HDAC Assay (BPS Bioscience, San Diego, CA) according to the manufacturer's instructions. The HDAC3 used in this assay was complexed with human nuclear receptor co-repressor 2 (NCOR2; amino acids 395–489), which is an activating co-factor of this HDAC isoform. All assays were carried out under steady-state conditions and the assay read-out was optimized for linearity both as a function of time and enzyme concentration. The formation of the fluorescent product was measured using a SpectraMax M2 Plate Reader (Molecular Devices, CA). The excitation and emission wavelengths were 360 nm and 450 nm, respectively. […]

T1 sequence (Q13547 whole entry): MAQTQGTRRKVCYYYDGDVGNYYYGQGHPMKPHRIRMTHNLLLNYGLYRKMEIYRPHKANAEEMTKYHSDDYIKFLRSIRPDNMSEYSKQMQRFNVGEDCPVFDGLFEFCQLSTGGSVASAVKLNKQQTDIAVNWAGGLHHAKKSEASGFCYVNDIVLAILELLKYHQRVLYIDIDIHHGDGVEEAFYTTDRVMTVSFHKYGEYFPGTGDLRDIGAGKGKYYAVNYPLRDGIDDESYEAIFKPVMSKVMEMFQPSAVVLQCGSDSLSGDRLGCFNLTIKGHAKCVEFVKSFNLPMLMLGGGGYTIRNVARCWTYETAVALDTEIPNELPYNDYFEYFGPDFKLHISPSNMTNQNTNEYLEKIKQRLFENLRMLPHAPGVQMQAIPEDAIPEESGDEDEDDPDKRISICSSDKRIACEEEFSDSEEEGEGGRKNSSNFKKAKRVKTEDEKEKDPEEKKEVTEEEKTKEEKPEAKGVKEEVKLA

Compound `COc1cc2c(cc1OC)-c1c(OC)c(OC)cc3ccnc(c13)C2=O` [Compound 57704, 1,2,9,10-tetramethoxy-7H-dibenzo[de,g]quinolin-7-one] came in with an IC50 greater than 50 µM.

Source of the values: PMC3906007, “Discovery of a Small Molecule Agonist of Phosphatidylinositol 3-Kinase p110α That Reactivates Latent HIV-1” (PLoS ONE, 2014).
